Molecule `N#Cc1c(N)nc(SCc2csc(Nc3cccc(Cl)c3)n2)c(C#N)c1-c1ccc(OCC(O)CO)cc1` (stereo not shown) [Example 1, 2-Amino-6-[({2-[(3-chlorophenyl)amino]-1,3-thiazol-4-yl}methyl)thio]-4-[4-(2,3-dihydroxypropoxy)phenyl]pyridine-3,5-dicarbonitrile] has a melting point of 192 to 194 °C.

From US8691850B2, “Substituted phenylaminothiazoles and use thereof” (Bayer Intellectual Property GmbH, priority 2004, dated 2014)
